The values that follow come from patent US20250059187A1, “COVALENTLY BINDING INHIBITORS OF G12S, G12D AND/OR G12E MUTANTS OF K-RAS GTPASE” (The Regents of the University of California, priority 2021, published 2025).

Series [1] concerns parental Ba/F3 cells (with IL-3). In words: Cell viability assay (CellTiter-Glo), parental Ba/F3 cells. In kind it is cell-based, murine. The settings on record: 10 μM. On the procedure: Cells were seeded into 96-well white flat bottom plates (1,000 cells/well) (Corning) and incubated overnight. […] Cell viability was assessed using a commercial CellTiter-Glo (CTG) luminescence-based assay (Promega). Briefly, the 96-well plates were equilibrated to room temperature before the addition of diluted CTG reagent […] (1:4 CTG reagent:PBS). Plates were placed on an orbital shaker for 30 min before recording luminescence using a Spark 20M (Tecan) plate reader.
(In general: ATP-based viability assays read luminescence as a measure of living cells.)

Series [2] concerns the target T1, wild type K-Ras (Homo sapiens, UniProt P01116).
T1 construct: human K-Ras (wildtype, aa 1-169); 6xHis tag + TEV cleavage site (N, cleaved yes); made in house; host or cells: E. coli BL21(DE3)
In words: Covalent modification of test protein after incubation with compound. Type of series: binding. The settings on record: 24-h incubation with 100 μM compound at 23° C. at pH 7.5.

The target in series [3] is T1, wild type K-Ras. In words: Covalent modification of recombinant wild-type K-Ras by whole-protein mass spectrometry. The settings on record: 23° C.; for % covalent modification of wild type K-Ras: 24-h incubation, 100 μM compound, pH 7.5. In kind it is binding. On the procedure:
(§1) Test compounds were prepared as 100× stock solutions in DMSO. K-Ras proteins were diluted with SEC Buffer (20 mM HEPES 7.5, 150 mM NaCl, 1 mM MgCl2) to 400 nM or 1 μM. In a typical reaction, 0.5 μL 100× compound stock was mixed with 50 μL diluted K-Ras protein, and the resulting mixture was incubated for the desired amount of time. The extent of modification was assessed by electrospray mass spectrometry using a Waters Xevo G2-XS system equipped with an Acquity UPLC BEH C4 1.7 μm column. The mobile phase was a linear gradient of 5-95% acetonitrile/water+0.05% formic acid. For kinetic measurements, a 2× compound solution was first prepared in SEC Buffer, which was then mixed with 400 nM K-Ras(G12S) protein at 1:1 (v/v) ratio. Injection time stamps were used to calculate elapsed time.
as §1, with “K-Ras(G12D)” for “K-Ras(G12S)”

In another series the target is T2, K-Ras(G12S)·GDP (Homo sapiens, UniProt P01116, G12S).
T2 construct: human K-Ras (G12S, aa 1-169); 6xHis tag + TEV cleavage site (N, cleaved yes); made in house; host or cells: E. coli BL21(DE3)
In words: Differential scanning fluorimetry of K-Ras(G12S)·GDP and its adduct. Type of series: binding. The method, then: (§2) The protein of interest was diluted with SEC Buffer [20 mM HEPES 7.5, 150 mM NaCl, 1 mM MgCl2] to 8 μM. This solution was dispensed into wells of a white 96-well PCR plate in triplicate (25 μL/well). Fluorescence was measured at 0.5-° C. temperature intervals every 30 s from 25° C. to 95° C. on a Bio-Rad CFX96 qPCR system using the FRET setting. Each data set was normalized to the highest fluorescence and the normalized fluorescence reading was plotted against temperature in GraphPad Prism 8.0. Tm values were determined as the temperature(s) corresponding to the maximum(ma) of the first derivative of the curve.
For orientation: Differential scanning fluorimetry follows unfolding on heating by fluorescence.

In another series the target is T3, K-Ras G12E (Homo sapiens, UniProt P01116, G12E).
T3 construct: human K-Ras (G12E, aa 1-169); 6xHis tag + TEV cleavage site (N, cleaved yes); made in house; host or cells: E. coli BL21(DE3)
Put plainly: Covalent modification of test protein after incubation with compound. Type of series: binding. Particulars: 24-h incubation with 100 μM compound at 23° C. at pH 7.5.

Series [4] concerns the target T4, K-Ras G12D (Homo sapiens, UniProt P01116, G12D).
T4 construct: human K-Ras (G12D, aa 1-169); 6xHis tag + TEV cleavage site (N, cleaved yes); made in house; host or cells: E. coli BL21(DE3)
The series is described as above. Type of series: binding. Particulars: 24-h incubation with 100 μM compound at 23° C. at pH 7.5.

In series [5] the target is T5, K-Ras(G12S) (Homo sapiens, UniProt P01116, G12S). Put plainly: Covalent modification of recombinant K-Ras(G12S) by whole-protein mass spectrometry. In kind it is binding. On the set-up: human K-Ras (G12S, aa 1-169); 6xHis tag + TEV cleavage site (N, cleaved yes); made in house; host or cells: E. coli BL21(DE3). The settings on record: for extent of modification of K-Ras(G12S)·GDP: 10 μM compound, 4 μM protein; for % covalent modification of K-Ras G12S: 24-h incubation, 100 μM compound, pH 7.5. The method, then: as §1, with “The mobile phase was a linear gradient of 5-95% acetonitrile/water+0.05% formic acid.” left out
as §1, with “The mobile phase was a linear gradient of 5-95% acetonitrile/water+0.05% formic acid.” left out, “K-Ras(G12D)” for “K-Ras(G12S)”

The target in series [6] is T5, K-Ras(G12S). In words: Sos- or EDTA-mediated nucleotide exchange assay (BODIPY-GDP). In kind it is biochemical. On the set-up: human K-Ras (G12S, aa 1-169); 6xHis tag + TEV cleavage site (N, cleaved yes); made in house; host or cells: E. coli BL21(DE3) for K-Ras. Particulars: K-Ras(G12S) adduct. The method, then:
This assay was performed as previously reported (2-5) with slight modifications. BODIPY-GDP-loaded K-Ras proteins were prepared freshly as follows. To a 10 μM solution of K-Ras(wildtype)·GDP, K-Ras(G12S)·GDP, or K-Ras(G12S)·GDP·1′ in SEC Buffer (1 mL) was added sequentially BODIPY-GDP (5 mM, 40 μL, Thermo Fisher, final concentration 200 μM) and Na-EDTA pH 8.0 (0.5 M, 5 μL, final concentration 2.5 mM). The mixture was incubated at 23° C. for 1 h, and a solution of MgCl2 (1.0 M, 20 μL, […]) was added to the reaction mixture. The protein solution was run through a PD-10 column to remove the excess nucleotide following the manufacturer's protocol. Briefly, sample (˜1.0 mL) and excess buffer (1.5 mL) were loaded onto the column (equilibrated with NucEx Buffer), and desalted protein was eluted with NucEx Buffer (3.5 mL). Protein concentration was measured with Bradford assay and adjusted to 1.25 μM with NucEx Buffer. 12 μL of this solution (triplicate for each condition) was added to wells of a black 384-well low-volume assay plate (Corning 4514). […] The plate was immediately placed in a TECAN Spark 20M plate reader, and fluorescence for BODIPY (excitation 488 nm, emission 520 nm) was read every 30 s over 1 h. Fluorescence intensity was normalized to values at time 0 and plotted again time. […]

In series [7] the target is T4, K-Ras G12D. In words: Differential scanning fluorimetry of K-Ras(G12D) and its covalent adducts. Type of series: binding. On the procedure:
as §2

Series [8] concerns the target T4, K-Ras G12D. Put plainly: Covalent modification of recombinant K-Ras(G12D) by whole-protein mass spectrometry. In kind it is binding. The method, then: as §1, with “K-Ras(G12D)” for “K-Ras(G12S)”
The subject of another series is BaF3/K-Ras(G12D) cells. Put plainly: Growth inhibition of BaF3/K-Ras(G12D) cells. In kind it is cell-based, murine. The settings on record: Mus musculus. On the procedure:
Cells were seeded into 96-well white flat bottom plates (1,000 cells/well) (Corning) and incubated overnight. Cells were treated with the indicated compounds in a nine-point threefold dilution series (100 μL final volume) and incubated for 72 h. Cell viability was assessed using a commercial CellTiter-Glo (CTG) luminescence-based assay (Promega). Briefly, the 96-well plates were equilibrated to room temperature before the addition of diluted CTG reagent […] (1:4 CTG reagent:PBS). Plates were placed on an orbital shaker for 30 min before recording luminescence using a Spark 20M (Tecan) plate reader.

Series [9] is described as follows: Stability of substituted β-lactones in PBS 7.4 at 23° C. Type of series: physicochemical. Particulars: for half-life: PBS, pH 7.4, read-out: half-life (hydrolysis) (converted).

A word on the half-life: it is the time in which the quantity being followed falls by half.

“Also recorded” adds a separate entry of the source. Where two headings read alike, the source gives them in different places.

Regarding `C=C(F)C(=O)N1CCN(c2nc(OC[C@@H]3CCCN3C)nc3c2CCN(c2cccc4cccc(Cl)c24)C3)C[C@@H]1CC#N` [adagrasib, reference compound], the “cell death of parental Ba/F3 cells” value in series [1] is “complete cell death”.

As for `CN1CCC[C@H]1COc1nc2c(c(N3CCC4C(=O)OC4C3)n1)CCN(c1cccc3cccc(Cl)c13)C2` (stereo partly shown) [1′], the “% covalent modification of wild type K-Ras” value on wild type K-Ras [2] and at wild type K-Ras [3] was 7.0% each time. Also, the “covalent adducts with wild-type K-Ras protein” value at wild type K-Ras [3] (10 μM compound, 4 μM protein) is given as “neither of these compounds formed covalent adducts”. Further, the “change of melting temperature of K-Ras(G12S)·GDP on adduct formation” value on K-Ras(G12S)·GDP is “+17.2 °C”. For the same compound, the “melting temperature (Tm) of the K-Ras(G12S)·GDP adduct” value at K-Ras(G12S)·GDP (unmodified K-Ras(G12S)·GDP 53.7° C.) worked out at 70.9 °C. For the same compound, at K-Ras G12E, the “% covalent modification of K-Ras G12E” value was 12.0%. The “% covalent modification of K-Ras G12D” value on K-Ras G12D [4] is given as 7.0%. Also, the “extent of modification of K-Ras(G12S)·GDP” value is given as 64% at K-Ras(G12S) [5] (1 hour, 23° C.) and 100% on K-Ras(G12S) [5] (12 h). The “% covalent modification of K-Ras G12S” value on K-Ras(G12S) [5] (23° C.) is on record as 100%. For the same compound, the “reaction with GppNHp-loaded K-Ras(G12S)” value on K-Ras(G12S) [5] (GppNHp-loaded protein, identical conditions) is “no reaction was observed; also recorded: does not react”. Moreover, the “EDTA promoted nucleotide exchange” value on K-Ras(G12S) [6] (EDTA) is listed as “decreased the rate of EDTA promoted exchange”. Moreover, the Sos-catalyzed nucleotide exchange result on K-Ras(G12S) [6] (Sos) was “blocked Sos-catalyzed exchange”.

Take `N#CC[C@H]1CN(c2nc(OCC34CCCN3CCC4)nc3c(F)c(-c4cccc5cccc(Cl)c45)ncc23)CCN1C(=O)C1CC(=O)O1` (stereo partly shown) [Compound 14-005]: the “% covalent modification of wild type K-Ras” value on wild type K-Ras [2] and on wild type K-Ras [3] was 0% each time. Moreover, on K-Ras G12E, the “% covalent modification of K-Ras G12E” value is listed as 38.0%. For the same compound, the “% covalent modification of K-Ras G12D” value at K-Ras G12D [4] is reported as 100%. Further, the “thermal stabilization of K-Ras(G12D)·GDP” value on K-Ras G12D [7] (GDP state) is reported as “stabilized K-Ras(G12D)·GDP”. Further, the “thermal stabilization of K-Ras(G12D)·GppNHp” value at K-Ras G12D [7] (GppNHp state) is “stabilized K-Ras(G12D)·GppNHp”. Moreover, at K-Ras(G12S) [5] (23° C.), the “% covalent modification of K-Ras G12S” value came to 100%.

For the compound `CC(C)[C@H]1C(=O)O[C@@H]1C(=O)N1[C@@H]2CC[C@H]1CN(c1nc(OCC34CCCN3CCC4)nc3c(F)c(-c4cccc5cccc(Cl)c45)ncc13)C2` [(2S, 3R)-4], the “reactivity with K-Ras(G12D)·GDP” value at K-Ras G12D [8] was “did not show any detectable reactivity”. Also, the IC50 with BaF3/K-Ras(G12D) cells (95% CI: 3.1-6.3 μM, read-out: IC50, BaF3/K-Ras(G12D) proliferation) stood at 4400 nM.

Consider `C[C@@H]1C(=O)O[C@H]1C(=O)N1[C@@H]2CC[C@H]1CN(c1nc(OCC34CCCN3CCC4)nc3c(F)c(-c4cccc5cccc(Cl)c45)ncc13)C2` [Compound 3], for which, in series [9], the half-life is 2.5 h.

Take `CC(C)[C@@H]1C(=O)O[C@H]1C(=O)N1[C@@H]2CC[C@H]1CN(c1nc(OCC34CCCN3CCC4)nc3c(F)c(-c4cccc5cccc(Cl)c45)ncc13)C2` [Compound 4]: the “material remaining intact (hydrolysis)” value in series [9] (after 24 h, pH 7.4) is more than 90%. In addition, in the series with BaF3/K-Ras(G12D) cells (read-out: IC50, growth of BaF3/K-Ras(G12D) cells), the IC50 was 71 nM.

Regarding `O=C1C[C@H](C(=O)N2[C@@H]3CC[C@H]2CN(c2nc(OCC45CCCN4CCC5)nc4c(F)c(-c5cccc6cccc(Cl)c56)ncc24)C3)O1` [Compound 2], the “reactivity with K-Ras(G12D)·GDP” value at K-Ras G12D [8] is “the R enantiomer was more reactive toward K-Ras(G12D)·GDP”. Further, the half-life in series [9] was 1.7 h.
